Results as given in patent US20200385371A1 (Propellon Therapeutics Inc., priority 2017, published 2020).
pEC50, pIC50, pKd: −log10 of the molar value. Read-outs that look alike come from different tables or passages of the source.

Columns and labels:
MLL1-WRAD2 complex = biological target: T1, MLL1-WRAD2 complex (Homo sapiens, UniProt P61964); test: MLL1-WRAD2 enzyme assay (HMT); assay type: biochemical
T1 construct: His tag (N); made in house; host or cells: E. coli
Description: Specifically, recombinant human MLL1 (aa 3745-3969, GenBank Accession No. NM_005933), WDR5 (aa 22-334, GenBank Accession No. NM_017588), RbBP5 (aa 1-538, GenBank Accession No. NM_005057), Ash2L (aa 2-534, GenBank Accession No. NM_001105214), and DPY-30 (aa 1-99, GenBank Accession No. NM_0325742), all with N-terminal His tag, are expressed in E. coli and mixed at a molar ratio of 1:1:1:1:2. 10 nM of the assembled MLL1-WRAD2 complex is mixed with 100 nM WRAD2 to enhance complex formation before incubation with 0.05 mg/ml nucleosome substrate and compounds (as 10 point duplicate dose response titrations) for 15 min in a buffer consisting of 50 mM Tris (pH 8.5), 5 mM MgCl2, 50 mM NaCl, 1 mM DTT, 0.01% Brij-35, and 1% DMSO. Reaction is initiated with 1 μM 3H-SAM and incubated for 1 hour at 30° C. Reaction mixture is transferred to P81 filter-paper and washed with PBS before detection.

WDR5 [1] = biological target: T2, WDR5 (Homo sapiens, UniProt P61964); test: Surface Plasmon Resonance (SPR) assay; assay type: binding; design: Full length WDR5 with an N-terminal His tag and C-terminal AviTag; His tag (N); made in house; host or cells: E. coli
How it was run: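 Full-length biotinylated WDR5 (N-His, C-AviTag, E. coli) captured (~3000 RU) on streptavidin SA chip; Biacore T200. HBS-EP pH 7.4 plus 5% DMSO running buffer, 40 μl/min.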

MV4-11 cells = test: Cell proliferation assay (ATPlite); assay type: cell-based; conditions: Homo sapiens; for pIC50: MV4-11, Table 2; for pEC50: 120 h, MV4-11 cells, five days, read-out: GI MV411 EC50
How it was run: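 Cells seeded at 1,000/well in Alpha-MEM with 10% FBS, treated with compound over a 10-point range (top 10 μM) or DMSO. Grown five days at 37° C, 5% CO2; viability by ATPlite luminescence.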

WDR5 [2] = biological target: T2, WDR5; test: Fluorescence Polarization (FP) binding assay
How it was run: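 Displacement of fluorescein-labelled H3 (1-15) (30 nM, with 0.3 μM WDR5) or 9-Ala-FAM (20 nM, with 0.05 μM WDR5) in 80 mM sodium phosphate pH 6.5, 20 mM KCl, 0.008% Triton X-100. FP read at 485/528 nm (H3) or 480/540 nm (9-Ala-FAM); Kdisp from hyperbolic fit, mean of quadruplicates.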

[3] = Table 2, effect of difluoro substitution, read-out: KD (SPR)

SMILES	pIC50 (MLL1-WRAD2 complex; Table 2, no unit printed in the cell)	pKd (WDR5 [1]; [3])	pIC50 (MLL1-WRAD2 complex; Table 2)	pIC50 (MV4-11 cells)	pIC50 (WDR5 [2])	pEC50 (MV4-11 cells)	pKd (WDR5 [1]; read-out: SPR Kd)
C[C@@H]1CN(c2ncc(-c3cc(NC(=O)c4c[nH]c(=O)cc4C(F)(F)F)c(N4C[C@@H](C)N(C)[C@@H](C)C4)cc3F)cn2)C[C@H](C)O1 [reference compound]	6.82	9.40	–	–	–	–	–
C[C@@H]1CN(c2ccc(-c3cnc(N4CCOCC4)nc3)c(F)c2NC(=O)c2c[nH]c(=O)cc2C(F)(F)F)C[C@H](C)N1C [reference compound]	–	8.96	6.81	–	–	–	–
C[C@@H]1CN(c2ncc(-c3c(F)cc(N4C[C@@H](C)N(C)[C@@H](C)C4)c(NC(=O)c4c[nH]c(=O)cc4C(F)(F)F)c3F)cn2)C[C@H](C)O1 [drawing 478, reference compound]	–	8.74	7.39	7.51	–	–	–
C[C@H]1CN(c2cc(F)c(C3=CCCN(c4ncc(C#N)s4)C3)c(F)c2NC(=O)c2c[nH]c(=O)cc2C(F)(F)F)CCN1C [Example 100, (S)—N-(3-(1-(5-cyanothiazol-2-yl)-1,2,5,6-tetrahydropyridin-3-yl)-6-(3,4-dimethylpiperazin-1-yl)-2,4-difluorophenyl)-6-oxo-4-(trifluoromethyl)-1,6-dihydropyridine-3-carboxamide]	–	–	–	–	7.93	6.74	8.84
C[C@H]1CN(c2cc(F)c(C3=CCN(C(=O)OC4(C)CCC4)CC3)c(F)c2NC(=O)c2c[nH]c(=O)cc2C(F)(F)F)CCN1C [Example 93, 1-Methylcyclobutyl(S)-4-(4-(3,4-dimethylpiperazin-1-yl)-2,6-difluoro-3-(6-oxo-4-(trifluoromethyl)-1,6-dihydropyridine-3-carboxamido)phenyl)-3,6-dihydropyridine-1(2H)-carboxylate]	–	–	–	–	7.81	7.71	8.67
C[C@@H]1CN(c2cc(F)c(-c3cnc(N4CCOCC4)nc3)c(F)c2NC(=O)c2c[nH]c(=O)cc2C(F)(F)F)C[C@H](C)N1C [drawing 479, reference compound]	–	8.43	7.20	7.52	–	–	–
C[C@@H]1CN(c2cc(F)c(-c3cnc(N4CCOCC4)nc3)c(F)c2NC(=O)c2ccc(F)cc2C(F)(F)F)C[C@H](C)N1C [Example 10, N-(2,4-difluoro-3-(2-morpholinopyrimidin-5-yl)-6-((3S,5R)-3,4,5-trimethylpiperazin-1-yl)phenyl)-4-fluoro-2-(trifluoromethyl)benzamideformic acid]	–	–	–	–	8.00	7.23	9.48
CC(C)OC(=O)N1CC=C(c2c(F)cc(N3CCN(C)[C@@H](C)C3)c(NC(=O)c3c[nH]c(=O)cc3C(F)(F)F)c2F)CC1 [Example 39, Isopropyl (S)-4-(4-(3,4-dimethylpiperazin-1-yl)-2,6-difluoro-3-(6-oxo-4-(trifluoromethyl)-1,6-dihydropyridine-3-carboxamido)phenyl)-3,6-dihydropyridine-1(2H)-carboxylate]	–	–	–	–	7.82	7.45	8.80
C[C@@H]1CN(c2ccc(-c3c(F)cc(N4CCN(C)[C@@H](C)C4)c(NC(=O)c4c[nH]c(=O)cc4C(F)(F)F)c3F)cn2)CCO1 [Example 169, N-(6-((S)-3,4-dimethylpiperazin-1-yl)-2,4-difluoro-3-(6-((R)-2-methylmorpholino)pyridin-3-yl)phenyl)-6-oxo-4-(trifluoromethyl)-1,6-dihydropyridine-3-carboxamide]	–	–	–	–	7.78	7.29	9.00
C[C@H]1CN(c2cc(F)c(C3=CCN(c4ncc(F)cn4)CC3)c(F)c2NC(=O)c2c[nH]c(=O)cc2C(F)(F)F)CCN1C [Example 82, (S)—N-(6-(3,4-dimethylpiperazin-1-yl)-2,4-difluoro-3-(1-(5-fluoropyrimidin-2-yl)-1,2,3,6-tetrahydropyridin-4-yl)phenyl)-6-oxo-4-(trifluoromethyl)-1,6-dihydropyridine-3-carboxamide]	–	–	–	–	7.80	7.28	8.91
